Patent US20240360107A1, “AN EIF4A INHIBITOR WITH A NOVEL MECHANISM OF ACTION” (ARIZONA BOARD OF REGENTS ON BEHALF OF THE UNIVERSITY OF …, priority 2021, published 2024)
Entries after “also recorded” stand apart in the source; their conditions may differ.

Target: eIF4A (Homo sapiens, UniProt P60842)
Assay: RNA-stimulated malachite green ATPase assay
Type: biochemical
Parameters: 6xHis with TEV protease site (N, cleaved yes); made in house; host or cells: E. coli BL21-CodonPlus
Conditions: for potency in the eIF4A ATPase assay (in words): comparison within the series
Procedure: Human eIF4A protein was produced recombinantly and a greater than 100,000-compound screen for inhibitors was completed using a malachite green ATPase assay (FIG. 11A). […] A stable mixture of yeast RNAs was added in an effort to improve this system and create a more biologically relevant eIF4A assay. eIF4A ATPase activity was accelerated without a statistically significant increase in the background signal in the presence of this RNA (FIG. 11B), and the new conditions gave excellent statistical parameters in a 384-well plate format (FIG. 11C).
ATPase assay. Recombinant WT or mutant eIF4A was added to a clear bottom 384 well plate (Greiner) in ATPase buffer (20 mM Tris pH 7.4, 80 mM KCl, 2.5 mM MgCl2, 1 mM DTT, 1% glycerol). Compounds were added and the plate was incubated at 37° C. for 20 min. ATP/RNA solution was added to afford a 20 μL per well reaction volume with 750 nM eIF4A, 250 μM ATP, and 0.25 mg/mL Yeast RNA (Sigma) for the initial screen and dose responses, and varying concentrations of ATP and RNA for the kinetic assays. The plate was incubated for 4 h at 37° C. for the initial screen and dose responses, and at seven time points (1 hour-7 hours) for kinetic assays. 0.04% v/v (final concentration) Tween-20 was added to a Malachite Green solution, and the Malachite Green (40 μL per well) was added. The solution was incubated for 5 minutes at room temperature and Absorbance at 660 nm was read on a SpectraMax iD5 plate reader (Molecular Devices).

Sequence of eIF4A (P60842 whole entry): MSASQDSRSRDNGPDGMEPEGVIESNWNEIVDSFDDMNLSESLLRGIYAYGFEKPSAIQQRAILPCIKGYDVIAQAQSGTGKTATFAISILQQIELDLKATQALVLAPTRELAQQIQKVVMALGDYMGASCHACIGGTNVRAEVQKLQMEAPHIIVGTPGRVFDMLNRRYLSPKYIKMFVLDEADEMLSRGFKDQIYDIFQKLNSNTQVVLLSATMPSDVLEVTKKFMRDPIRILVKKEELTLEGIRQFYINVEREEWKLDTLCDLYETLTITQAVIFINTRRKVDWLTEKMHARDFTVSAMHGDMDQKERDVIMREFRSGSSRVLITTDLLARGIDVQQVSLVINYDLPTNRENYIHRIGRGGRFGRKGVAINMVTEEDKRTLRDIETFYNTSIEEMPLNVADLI

potency in the eIF4A ATPase assay (in words)	SMILES	also measured
	CCCCc1ccc(-c2ccc(-c3cc(C(=O)OCC)c4cc(Br)ccc4n3)o2)cc1 [Compound 2, ethyl 6-bromo-2-(5-(4-butylphenyl)furan-2-yl)quinoline-4-carboxylate]	fold less potent than compound 1 in the ATPase assay (relative to compound 1): about 5 fold
much less potent than compound 1	CCCCc1ccc(-c2ccc(-c3cc(C(=O)O)c4ccccc4n3)o2)cc1 [Compound 3, 2-(5-(4-butylphenyl)furan-2-yl)quinoline-4-carboxylic acid]	
large drop in potency	CCCCc1ccc(-c2ccc(-c3cc(C(=O)O)c4c(Cl)cccc4n3)o2)cc1 [Compound 4, 2-(5-(4-butylphenyl)furan-2-yl)-5-chloroquinoline-4-carboxylic acid]	
moderate potency	CCCCc1ccc(-c2ccc(-c3cc(C(=O)O)c4ccc(F)cc4n3)o2)cc1 [Compound 8, 2-(5-(4-butylphenyl)furan-2-yl)-7-fluoroquinoline-4-carboxylic acid]	
moderate potency	CCCCc1ccc(-c2ccc(-c3cc(C(=O)O)c4ccc(Br)cc4n3)o2)cc1 [Compound 10, 7-bromo-2-(5-(4-butylphenyl)furan-2-yl)quinoline-4-carboxylic acid]	
less potent than bromine (12)	CCCCc1ccc(-c2ccc(-c3cc(C(=O)O)c4cccc(Cl)c4n3)o2)cc1 [Compound 11, 2-(5-(4-butylphenyl)furan-2-yl)-8-chloroquinoline-4-carboxylic acid]	
much more potent than 7-methoxy (22)	CCCCc1ccc(-c2ccc(-c3cc(C(=O)O)c4cc(OC)ccc4n3)o2)cc1 [Compound 21, 2-(5-(4-butylphenyl)furan-2-yl)-6-methoxyquinoline-4-carboxylic acid]	
much less potent than compound 21	CCCCc1ccc(-c2ccc(-c3cc(C(=O)O)c4cc(OC(F)(F)F)ccc4n3)o2)cc1 [Compound 23, 2-(5-(4-butylphenyl)furan-2-yl)-6-(trifluoromethoxy)quinoline-4-carboxylic acid]	
large drop in potency	CCCCc1ccc(-c2ccc(-c3cc(C(=O)O)c4cc([N+](=O)[O-])ccc4n3)s2)cc1 [Compound 31, 2-(5-(4-butylphenyl)thiophen-2-yl)-6-nitroquinoline-4-carboxylic acid]	
large drop in potency	CCCCc1ccc(-c2ccc(-c3cc(C(=O)O)c4cc([N+](=O)[O-])ccc4n3)[nH]2)cc1 [Compound 32, 2-(5-(4-butylphenyl)-1H-pyrrol-2-yl)-6-nitroquinoline-4-carboxylic acid]	
drop in potency	CCCCc1ccc(-c2cccc(-c3cc(C(=O)O)c4cc([N+](=O)[O-])ccc4n3)c2)cc1 [Compound 33, 2-(4′-butyl-[1,1′-biphenyl]-3-yl)-6-nitroquinoline-4-carboxylic acid]	
drop in potency	CCCCc1ccc(-c2cccc(-c3cc(C(=O)O)c4cc([N+](=O)[O-])ccc4n3)n2)cc1 [Compound 34, 2-(6-(4-butylphenyl)pyridin-2-yl)-6-nitroquinoline-4-carboxylic acid]	
lost potency altogether	CCCCc1ccc(-c2cncc(-c3cc(C(=O)O)c4cc([N+](=O)[O-])ccc4n3)c2)cc1 [Compound 35, 2-(5-(4-butylphenyl)pyridin-3-yl)-6-nitroquinoline-4-carboxylic acid]	
much less potent than 28	CCCCc1ccc(-c2ccc(-c3cc(C(=O)O)c4cc([N+](=O)[O-])ccc4n3)cc2)cc1 [Compound 36, 2-(4′-butyl-[1,1′-biphenyl]-4-yl)-6-nitroquinoline-4-carboxylic acid]	
much less potent than 28	CCCCc1ccc(-c2ccc(-c3cc(C(=O)O)c4cc([N+](=O)[O-])ccc4n3)cn2)cc1 [Compound 37, 2-(6-(4-butylphenyl)pyridin-3-yl)-6-nitroquinoline-4-carboxylic acid]	
drastic loss in potency	O=C(O)c1cc(-c2ccc(-c3ccccc3)o2)nc2ccc([N+](=O)[O-])cc12 [Compound 38, 6-nitro-2-(5-phenylfuran-2-yl)quinoline-4-carboxylic acid]	
	CCCc1ccc(-c2ccc(-c3cc(C(=O)O)c4cc([N+](=O)[O-])ccc4n3)o2)cc1 [Compound 39, 6-nitro-2-(5-(4-propylphenyl)furan-2-yl)quinoline-4-carboxylic acid]	fold less potent than 28 in the ATPase assay (relative to compound 28): about 5 fold
no more potent than 28	CCCCCc1ccc(-c2ccc(-c3cc(C(=O)O)c4cc([N+](=O)[O-])ccc4n3)o2)cc1 [Compound 40, 6-nitro-2-(5-(4-pentylphenyl)furan-2-yl)quinoline-4-carboxylic acid]	
lost all potency	O=C(O)c1cc(-c2ccc(-c3ccc4c(c3)OCO4)o2)nc2ccc([N+](=O)[O-])cc12 [Compound 48, 2-(5-(benzo[d][1,3]dioxol-5-yl)furan-2-yl)-6-nitroquinoline-4-carboxylic acid]	
less potent than compound 28	O=C(O)c1cc(-c2ccc(-c3cccc(-c4ccccc4)c3)o2)nc2ccc([N+](=O)[O-])cc12 [Compound 51, 2-(5-([1,1′-biphenyl]-3-yl)furan-2-yl)-6-nitroquinoline-4-carboxylic acid]	

SMILES	potency in the eIF4A ATPase assay (in words)	also measured
CCCCc1ccc(-c2ccc(-c3cc(C(=O)O)c4cc(Cl)ccc4n3)o2)cc1 [Compound 6, 2-(5-(4-butylphenyl)furan-2-yl)-6-chloroquinoline-4-carboxylic acid]	moderate losses of potency compared to the bromine substituent	
CCCCc1ccc(-c2ccc(-c3cc(C(=O)O)c4cc(I)ccc4n3)o2)cc1 [Compound 7, 2-(5-(4-butylphenyl)furan-2-yl)-6-iodoquinoline-4-carboxylic acid]	moderate losses of potency compared to the bromine substituent	
CCCCc1ccc(-c2ccc(-c3cc(C(=O)O)c4ccc(OC)cc4n3)o2)cc1 [Compound 22, 2-(5-(4-butylphenyl)furan-2-yl)-7-methoxyquinoline-4-carboxylic acid]	neither were more potent than earlier molecules in the series	
CCCCc1ccc(-c2ccc(-c3cc(C(=O)O)c4ccc(C(F)(F)F)cc4n3)o2)cc1 [Compound 26, 2-(5-(4-butylphenyl)furan-2-yl)-7-(trifluoromethyl)quinoline-4-carboxylic acid]	performed better in the ATPase assay than molecules with electron-donating substitutions	
CCCCc1ccc(-c2ccc(-c3cc(C(=O)O)c4cccc(C(F)(F)F)c4n3)o2)cc1 [Compound 27, 2-(5-(4-butylphenyl)furan-2-yl)-8-(trifluoromethyl)quinoline-4-carboxylic acid]	performed better in the ATPase assay than molecules with electron-donating substitutions; also recorded: about two-fold better than compound 26	
CCCCc1ccc(-c2ccc(-c3cc(C(=O)O)c4cccc([N+](=O)[O-])c4n3)o2)cc1 [Compound 30, 2-(5-(4-butylphenyl)furan-2-yl)-8-nitroquinoline-4-carboxylic acid]	over three-fold less potent than compound 28	
CC(C)(C)OC(=O)Nc1cccc(-c2ccc(-c3cc(C(=O)O)c4cc([N+](=O)[O-])ccc4n3)o2)c1 [Compound 44, 2-(5-(3-((tert-butoxycarbonyl)amino)phenyl)furan-2-yl)-6-nitroquinoline-4-carboxyli c acid]	low potency	
CC(C)(C)OC(=O)Nc1ccc(-c2ccc(-c3cc(C(=O)O)c4cc([N+](=O)[O-])ccc4n3)o2)cc1 [Compound 45, 2-(5-(4-((tert-butoxycarbonyl)amino)phenyl)furan-2-yl)-6-nitroquinoline-4-carboxylic acid]	low potency	
O=C(O)c1cc(-c2ccc(-c3cccc4ccccc34)o2)nc2ccc([N+](=O)[O-])cc12 [Compound 49, 2-(5-(naphthalen-1-yl)furan-2-yl)-6-nitroquinoline-4-carboxylic acid]	about four-fold less potent than compound 28	
O=C(O)c1cc(-c2ccc(-c3ccc(-c4ccccc4)cc3)o2)nc2ccc([N+](=O)[O-])cc12 [Compound 50, 2-(5-([1,1′-biphenyl]-4-yl)furan-2-yl)-6-nitroquinoline-4-carboxylic acid]	less potent than compound 28; also recorded: more potent than meta-substituted 51	
